Experimental data published in BindingDB's records for doi:10.7270/Q2R49PCF (Burnham Center For Chemical Genomics, 2012).

Biological target: T1, Sentrin-specific protease 1 (Homo sapiens, UniProt Q9P0U3)
T1 sequence (Q9P0U3 whole entry): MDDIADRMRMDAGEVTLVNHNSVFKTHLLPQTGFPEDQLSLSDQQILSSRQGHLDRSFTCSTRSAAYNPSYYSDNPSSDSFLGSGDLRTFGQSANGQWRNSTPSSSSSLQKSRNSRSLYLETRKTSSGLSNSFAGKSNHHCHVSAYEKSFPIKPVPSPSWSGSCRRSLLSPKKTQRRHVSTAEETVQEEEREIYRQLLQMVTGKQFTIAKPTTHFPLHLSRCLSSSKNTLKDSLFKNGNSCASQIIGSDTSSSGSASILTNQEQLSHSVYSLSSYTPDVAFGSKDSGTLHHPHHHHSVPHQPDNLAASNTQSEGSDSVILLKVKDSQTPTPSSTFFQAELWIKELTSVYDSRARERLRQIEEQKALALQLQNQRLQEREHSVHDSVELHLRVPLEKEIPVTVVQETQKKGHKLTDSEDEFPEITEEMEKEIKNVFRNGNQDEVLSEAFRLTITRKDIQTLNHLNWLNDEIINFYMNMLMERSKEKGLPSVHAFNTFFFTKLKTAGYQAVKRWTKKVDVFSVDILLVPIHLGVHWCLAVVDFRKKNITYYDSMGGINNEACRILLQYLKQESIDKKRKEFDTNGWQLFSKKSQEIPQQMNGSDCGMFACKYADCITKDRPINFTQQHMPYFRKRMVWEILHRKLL

Work on `CCOC1=CC(=Cc2sc(=O)[nH]c2N)C=CC1=O` yielded an IC50 of 18.2 µM.

Work on `COc1ccc(-n2c(O)c3c(c2O)C(C(=O)c2ccccc2)N2CCCC32)cc1` (stereo not drawn) [MLS000762485] yielded an IC50 of 11 µM.

With `CN(C)c1ccc(C=NNC(=O)C(=O)CC2=NC3(CCCC3)Cc3ccccc32)cc1` [MLS000589038] the IC50 was 13.2 µM.

Work on `O=C(c1ccccc1)[C@@H]1c2c(c(O)n(-c3ccc(F)cc3)c2O)C2CCCN21` (stereo partly drawn) [MLS000769629] yielded an IC50 of 7.78 µM.

In the case of `Nc1ccc2c(c1)C(N=O)c1cc([N+](=O)[O-])ccc1-2` (stereo not drawn) [N-(2-azanyl-7-nitro-fluoren-9-ylidene)hydroxylamine], the IC50 is reported as 3.12 µM.

`CC(=O)Oc1ccc(-n2c(O)c3c(c2O)C(C(=O)c2ccc(Cl)cc2)N2CCCC32)cc1` (stereo not drawn) [Acetic acid 4-[4-(4-chloro-benzoyl)-1,3-dioxo-octahydro-pyrrolo[3,4-a]pyrrolizin-2-yl]-phenyl ester] was tested, and the IC50 was 4.65 µM.

In the case of `COc1nccnc1NS(=O)(=O)c1ccc(NC(=S)NC(=O)c2ccc(F)cc2)cc1` [4-[3-(4-Fluoro-benzoyl)-thioureido]-N-(3-methoxy-pyrazin-2-yl)-benzenesulfonamide], the IC50 is reported as 15.4 µM.

With `CC1(C)CC(=O)C2Sc3ccccc3N=C2C1` (stereo not drawn) [2,2-Dimethyl-2,3-dihydro-1H,10H-phenothiazin-4-one] the IC50 was 42.4 µM.

`CCN1C(=O)c2cccc3c(NC(=O)c4cccc(-n5c(O)ccc5O)c4)ccc1c23` [3-(2,5-dioxopyrrolidin-1-yl)-N-(1-ethyl-2-oxobenzo[cd]indol-6-yl)benzamide] was tested, and the IC50 was 11.3 µM.

`O=[N+]([O-])c1ccc(C/N=N/c2ccccc2)cc1` gave an IC50 of 7.2 µM.

Compound `O=NC1c2cc([N+](=O)[O-])ccc2-c2cc(Cl)c(NC(=O)C(F)(F)F)cc21` (stereo not drawn) [MLS002707326] has an IC50 of 2.89 µM.

In the case of `COc1ccc(P2(=O)Nc3ccccc3N2)cc1` [2-(4-methoxyphenyl)-1,3-dihydro-1,3,2-benzodiazaphosphole 2-oxide], the IC50 is reported as > 80 µM.

`O=C(Cc1cccc2ccccc12)NC(NC(=S)Nc1ccccc1Cl)C(Cl)(Cl)Cl` (stereo not drawn) [2-(1-naphthyl)-N-[2,2,2-trichloro-1-({[(2-chlorophenyl)amino]carbonothioyl}amino)ethyl]acetamide] was tested, and the IC50 was 8.71 µM.

`Oc1c2c(c(O)n1-c1ccccn1)C(c1ccccc1)C=CC2c1ccccc1` (stereo not drawn) [4,7-diphenyl-2-pyridin-2-yl-3a,4,7,7a-tetrahydroisoindole-1,3-dione] was tested, and the IC50 was 7.9 µM.

With `CCOc1cc(C=c2[nH]c3n(c2=O)CCCCC=3)ccc1O` [MLS000774439] the IC50 was 7.67 µM.

`O=C1CC(=O)c2cccc3cccc1c23` [3-hydroxy-1H-phenalen-1-one] showed an IC50 of 8.55 µM.

With `N#CC1C(=N)Oc2cc(Nc3ccccc3)ccc2C1c1ccncc1` (stereo not drawn) [2-amino-7-anilino-4-pyridin-4-yl-4H-1-benzopyran-3-carbonitrile] the IC50 was 30.5 µM.

`O=C1CC(=Nc2ccc(Cl)cc2)C(=O)N1c1ccc(Cl)cc1` [1-(4-chlorophenyl)-3-[(4-chlorophenyl)amino]pyrrole-2,5-dione] was tested, and the IC50 was 12.5 µM.

`COc1ccc(-n2c(O)c3c(c2O)C(C(=O)c2ccc(Cl)cc2)N2CCCC32)cc1` (stereo not drawn) was tested, and the IC50 was 4.36 µM.

For `O=C(O)c1ccc(N=NCc2cccc3nccnc23)cc1` [4-[(2E)-2-(5-quinoxalinylmethylidene)hydrazinyl]benzoic acid], the IC50 was 8.97 µM.

Compound `O=C1CCCC2=Nc3cc(Cl)ccc3SC12` (stereo not drawn) [MLS000333002] has an IC50 of 17.1 µM.

With `COc1ccc(C=Nn2c(O)csc2=S)cc1Br` [3-[(E)-(3-bromo-4-methoxyphenyl)methylideneamino]-2-sulfanylidene-4-thiazolidinone] the IC50 was 9.69 µM.

`CC1=C(C#N)C(=O)NC(=O)C1=NNc1ccc(Br)cc1C(=O)O` [MLS001213177] gave an IC50 of 10.6 µM.
